According to ChEMBL document CHEMBL4130359, “Indazole-based ligands for estrogen-related receptor α as potential anti-diabetic agents” (Eur J Med Chem, 2017):
Activity calls are given as the source filed them. No cut-off for these calls is given here.

Columns and labels:
Rattus norvegicus [1] = assay: Effect on HADHB gene expression in epididymal white adipose tissue of Zucker rat sub-chronic fa/fa prediabetic model at 10 mg/kg, po qd for 15 days by microarray analysis relative to control; format: functional
[2] = Drug uptake in fat tissue of Zucker rat sub-chronic fa/fa prediabetic model at 12.5 mg/kg, po qd for 11 days; format: ADME, organism-based, Adipose tissue; conditions: read-out: Drug uptake
Rattus norvegicus [3] = assay: Antidiabetic activity in […] model assessed as HbA1C level at 50 mg/kg, po qd for 31 days measured on day 32 post dose (reference value: 5.9 +/- 0.18%); format: functional
Rattus norvegicus [4] = assay: Toxicity in Zucker rat sub-chronic fa/fa prediabetic model assessed as change in body weight at 3 mg/kg, po qd for 29 days measured on day 1 to 29 during compound dosing (reference value: 140 +/- 7 g); format: organism-based; conditions: in vivo, 696 h
[5] = AUC (0 to 24 hrs) in […] model at 10 mg/kg, po qd for 28 days measured on day 28 post last dose; format: ADME, organism-based; design: time < 24 hr, dose 10 mg/kg, route oral; conditions: in vivo
Rattus norvegicus [6] = assay: Effect on IL36B gene expression in epididymal white adipose tissue of Zucker rat sub-chronic fa/fa prediabetic model at 10 mg/kg, po qd for 15 days by microarray analysis relative to control; format: functional
Rattus norvegicus [7] = assay: Toxicity in Zucker rat sub-chronic fa/fa prediabetic model assessed as brown adipose tissue weight at 50 mg/kg, po qd for 31 days measured on day 32 (reference value: 2.1 +/- 0.3 g); format: organism-based; conditions: in vivo, 744 h
Rattus norvegicus [8] = assay: Toxicity in Zucker rat sub-chronic fa/fa prediabetic model assessed as change in body weight at 50 mg/kg, po qd for 29 days measured on day 1 to 29 during compound dosing (reference value: 140 +/- 7 g); format: organism-based; conditions: in vivo, 696 h
Rattus norvegicus [9] = assay: Effect on GNPAT gene expression in epididymal white adipose tissue of Zucker rat sub-chronic fa/fa prediabetic model at 10 mg/kg, po qd for 15 days by microarray analysis relative to control; format: functional
Rattus norvegicus [10] = assay: Toxicity in Zucker rat sub-chronic fa/fa prediabetic model assessed as change in body weight at 1 mg/kg, po qd for 29 days measured on day 1 to 29 during compound dosing (reference value: 140 +/- 7 g); format: organism-based; conditions: in vivo, 696 h
Rattus norvegicus [11] = assay: Effect on GBE1 gene expression in epididymal white adipose tissue of Zucker rat sub-chronic fa/fa prediabetic model at 10 mg/kg, po qd for 15 days by microarray analysis relative to control; format: functional
Rattus norvegicus [12] = assay: Effect on NR1H3 gene expression in epididymal white adipose tissue of Zucker rat sub-chronic fa/fa prediabetic model at 10 mg/kg, po qd for 15 days by microarray analysis relative to control; format: functional
[13] = AUC (0 to 24 hrs) in Zucker rat sub-chronic fa/fa prediabetic model at 50 mg/kg, po qd measured on day 1 post dose; format: ADME, organism-based; design: dose 50 mg/kg, time < 24 hr, route oral; conditions: in vivo
Rattus norvegicus [14] = assay: Effect on SFN gene expression in epididymal white adipose tissue of Zucker rat sub-chronic fa/fa prediabetic model at 10 mg/kg, po qd for 15 days by microarray analysis relative to control; format: functional
Rattus norvegicus [15] = assay: Toxicity in Zucker rat sub-chronic fa/fa prediabetic model assessed as triglyceride level per gram liver at 10 mg/kg, po qd for 31 days measured on day 32 (reference value: 163.4 +/- 8.3 mg); format: organism-based; conditions: in vivo, 744 h
Rattus norvegicus [16] = assay: Effect on PIAS1 gene expression in epididymal white adipose tissue of Zucker rat sub-chronic fa/fa prediabetic model at 10 mg/kg, po qd for 15 days by microarray analysis relative to control; format: functional
Rattus norvegicus [17] = assay: Effect on LPIN2 gene expression in epididymal white adipose tissue of Zucker rat sub-chronic fa/fa prediabetic model at 10 mg/kg, po qd for 15 days by microarray analysis relative to control; format: functional
Rattus norvegicus [18] = assay: Effect on GHR gene expression in epididymal white adipose tissue of Zucker rat sub-chronic fa/fa prediabetic model at 10 mg/kg, po qd for 15 days by microarray analysis relative to control; format: functional
Rattus norvegicus [19] = assay: Antidiabetic activity in po dosed Zucker rat chronic ob/ob model assessed as reduction in HbA1c level administered once daily for 31 days measured on day 28 post dose by OGTT; format: functional, organism-based
[20] = Clearance in CD-1 mouse at 5 mg/kg, iv by LC-MS analysis; format: ADME, organism-based; conditions: in vivo
Rattus norvegicus [21] = assay: Effect on NFKB1 gene expression in epididymal white adipose tissue of Zucker rat sub-chronic fa/fa prediabetic model at 10 mg/kg, po qd for 15 days by microarray analysis relative to control; format: functional
Rattus norvegicus [22] = assay: Effect on NDUFB5 gene expression in epididymal white adipose tissue of Zucker rat sub-chronic fa/fa prediabetic model at 10 mg/kg, po qd for 15 days by microarray analysis relative to control; format: functional
Rattus norvegicus [23] = format: functional, Zucker
Rattus norvegicus [24] = assay: Effect on PPARGC1B gene expression in epididymal white adipose tissue of Zucker rat sub-chronic fa/fa prediabetic model at 10 mg/kg, po qd for 15 days by microarray analysis relative to control; format: functional
Rattus norvegicus [25] = assay: Effect on ABCG1 gene expression in epididymal white adipose tissue of Zucker rat sub-chronic fa/fa prediabetic model at 10 mg/kg, po qd for 15 days by microarray analysis relative to control; format: functional
[26] = Tmax in Sprague-Dawley rat at 10 mg/kg administered via oral gavage by LC-MS analysis; format: ADME, organism-based; conditions: in vivo
Rattus norvegicus [27] = assay: Toxicity in Zucker rat sub-chronic fa/fa prediabetic model assessed as serum cholesterol level at 10 mg/kg, po qd for 31 days measured on day 32 (reference value: 295 +/- 91 mg/dl); format: organism-based; conditions: in vivo, 744 h
Rattus norvegicus [28] = assay: Toxicity in […] chronic ob/ob model assessed as brown adipose tissue weight at 50 mg/kg, po qd for 31 days measured on day 32 (reference value: 0.59 +/- 0.05 g); format: organism-based; conditions: in vivo, 744 h
Rattus norvegicus [29] = assay: Effect on NDUFV2 gene expression in epididymal white adipose tissue of Zucker rat sub-chronic fa/fa prediabetic model at 10 mg/kg, po qd for 15 days by microarray analysis relative to control; format: functional
Rattus norvegicus [30] = assay: Increase in ERRalpha mRNA expression in epididymal white adipose tissue of Zucker rat sub-chronic fa/fa prediabetic model at 10 mg/kg, po qd for 15 days by RT-PCR method; format: functional, organism-based
Rattus norvegicus [31] = assay: Toxicity in Zucker rat sub-chronic fa/fa prediabetic model assessed as liver weight at 10 mg/kg, po qd for 31 days measured on day 32 (reference value: 28 +/- 1.6 g); format: organism-based; conditions: in vivo, 744 h
Rattus norvegicus [32] = assay: Toxicity in Zucker rat sub-chronic fa/fa prediabetic model assessed as triglyceride level per gram liver at 3 mg/kg, po qd for 31 days measured on day 32 (reference value: 163.4 +/- 8.3 mg); format: organism-based; conditions: in vivo, 744 h
[33] = AUC (0 to 24 hrs) in […] model at 3 mg/kg, po qd measured on day 1 post dose; format: ADME, organism-based; design: dose 3 mg/kg, time < 24 hr, route oral; conditions: in vivo
Rattus norvegicus [34] = assay: Effect on BAD gene expression in epididymal white adipose tissue of Zucker rat sub-chronic fa/fa prediabetic model at 10 mg/kg, po qd for 15 days by microarray analysis relative to control; format: functional

SMILES: CN1CC[C@@H](N2C(=O)S/C(=C\c3ccc4c(cnn4Cc4ccc(Cl)cc4C(F)(F)F)c3)C2=O)[C@H](F)C1
- fold change (FC) (Rattus norvegicus [1]): 1.349
- concentration at 264 h [2]: 58100 ng/g
- Activity (Rattus norvegicus [3]): 5%
- Activity (Rattus norvegicus [4]): 160 g
- AUC at 24 h [5]: 5910 ng·h/mL
- fold change (FC) (Rattus norvegicus [6]): -1.232
- Activity (Rattus norvegicus [7]): 10.3 g
- Activity (Rattus norvegicus [8]): 157 g
- fold change (FC) (Rattus norvegicus [9]): 1.212
- Activity (Rattus norvegicus [10]): 142 g
- fold change (FC) (Rattus norvegicus [11]): 1.79
- fold change (FC) (Rattus norvegicus [12]): 1.389
- AUC(0-t) at 24 h [13]: 92000 ng·h/mL
- fold change (FC) (Rattus norvegicus [14]): -1.468
- Activity (Rattus norvegicus [15]): 93 mg
- fold change (FC) (Rattus norvegicus [16]): -1.323
- fold change (FC) (Rattus norvegicus [17]): 1.548
- fold change (FC) (Rattus norvegicus [18]): 1.276
- Activity (Rattus norvegicus [19]): Dose-dependent effect
- clearance [20]: 10 mL/min/kg
- fold change (FC) (Rattus norvegicus [21]): -1.254
- fold change (FC) (Rattus norvegicus [22]): 1.206
- Activity (Rattus norvegicus [23]): 14.9%
- fold change (FC) (Rattus norvegicus [24]): 2.249
- fold change (FC) (Rattus norvegicus [25]): 1.488
- Tmax [26]: 1.5 h
- Activity (Rattus norvegicus [27]): 197 mg/dL
- Activity (Rattus norvegicus [28]): 1.31 g
- fold change (FC) (Rattus norvegicus [29]): 1.44
- Activity (Rattus norvegicus [30]): Active
- Activity (Rattus norvegicus [31]): 18.5 g
- Activity (Rattus norvegicus [32]): 124.7 mg
- AUC(0-t) at 24 h [33]: 1400 ng·h/mL
- fold change (FC) (Rattus norvegicus [34]): -1.216
